Source: ChEMBL document CHEMBL1142609, “An apigenin-derived xanthine oxidase inhibitor from Palhinhaea cernua” (J Nat Prod, 2006)

Experiments:
[1] = molecular target: T1, Xanthine dehydrogenase/oxidase (Homo sapiens, UniProt P47989); experiment: Inhibition of xanthine oxidase
[2] = molecular target: T1, Xanthine dehydrogenase/oxidase; experiment: Inhibition of xanthine oxidase by competitive Lineweaver-Burke plot
[3] = molecular target: T1, Xanthine dehydrogenase/oxidase; experiment: Inhibition of xanthine oxidase by noncompetitive Lineweaver-Burke plot; details: read-out: Kinact

T1 sequence (P47989 whole entry): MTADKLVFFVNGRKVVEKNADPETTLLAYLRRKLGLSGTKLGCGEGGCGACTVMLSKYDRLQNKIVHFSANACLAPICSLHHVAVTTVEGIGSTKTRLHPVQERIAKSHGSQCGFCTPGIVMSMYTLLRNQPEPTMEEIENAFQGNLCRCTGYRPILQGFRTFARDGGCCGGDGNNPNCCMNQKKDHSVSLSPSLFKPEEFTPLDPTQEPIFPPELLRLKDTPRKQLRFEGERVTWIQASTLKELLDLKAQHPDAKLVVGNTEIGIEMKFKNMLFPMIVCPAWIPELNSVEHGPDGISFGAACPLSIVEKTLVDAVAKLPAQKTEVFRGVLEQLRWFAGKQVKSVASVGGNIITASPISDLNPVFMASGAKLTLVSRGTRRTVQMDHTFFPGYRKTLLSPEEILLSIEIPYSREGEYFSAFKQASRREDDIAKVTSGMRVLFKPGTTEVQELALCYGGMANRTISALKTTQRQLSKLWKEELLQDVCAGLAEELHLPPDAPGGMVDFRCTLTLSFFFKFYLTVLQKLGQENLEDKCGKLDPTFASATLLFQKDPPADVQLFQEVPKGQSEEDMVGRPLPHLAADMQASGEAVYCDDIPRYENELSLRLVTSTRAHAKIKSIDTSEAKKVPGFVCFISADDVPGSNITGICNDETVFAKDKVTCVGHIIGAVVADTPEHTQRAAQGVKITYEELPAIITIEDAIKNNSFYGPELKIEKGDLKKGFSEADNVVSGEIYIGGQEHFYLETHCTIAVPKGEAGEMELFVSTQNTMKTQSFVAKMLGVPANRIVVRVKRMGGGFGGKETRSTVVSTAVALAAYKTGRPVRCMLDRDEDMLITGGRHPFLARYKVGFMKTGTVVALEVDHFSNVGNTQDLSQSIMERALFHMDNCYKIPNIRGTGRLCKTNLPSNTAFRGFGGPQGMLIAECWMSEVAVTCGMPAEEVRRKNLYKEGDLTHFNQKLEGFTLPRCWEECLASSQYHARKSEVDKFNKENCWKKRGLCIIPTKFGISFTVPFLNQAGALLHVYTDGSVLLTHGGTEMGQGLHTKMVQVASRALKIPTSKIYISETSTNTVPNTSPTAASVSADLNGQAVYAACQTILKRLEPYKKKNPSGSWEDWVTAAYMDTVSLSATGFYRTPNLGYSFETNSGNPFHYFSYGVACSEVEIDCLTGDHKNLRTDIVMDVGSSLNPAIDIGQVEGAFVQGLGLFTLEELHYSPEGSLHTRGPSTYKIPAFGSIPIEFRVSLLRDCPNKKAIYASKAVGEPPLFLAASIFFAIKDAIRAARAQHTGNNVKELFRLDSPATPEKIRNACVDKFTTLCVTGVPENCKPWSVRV

Row | SMILES | IC50 [1] [µM] | Ki [2] [µM] | Ki [3] [µM]
1 | O=C(/C=C/c1ccc(O)cc1)OC[C@@H]1O[C@H](Oc2ccc(-c3cc(=O)c4c(O)cc(O)cc4o3)cc2)[C@@H](O)[C@H](O)[C@H]1O | > 100 |  | 
2 | O=C(/C=C/c1ccc(O)cc1)O[C@@H]1[C@@H](Oc2ccc(-c3cc(=O)c4c(O)cc(O)cc4o3)cc2)O[C@@H](CO)[C@H](O)[C@H]1O | 24 | 14.3 | 93.7
3 | O=C(/C=C/c1ccc(O)cc1)OC[C@@H]1O[C@H](Oc2ccc(-c3cc(=O)c4c(O)cc(O)cc4o3)cc2)[C@@H](OC(=O)/C=C/c2ccc(O)cc2)[C@H](O)[C@H]1O | > 100 |  | 
